We go through 23 compounds from patent US5260451A, “Substituted pyrrole compounds and use thereof in pharmaceutical compositions” (priority 1989, dated 1993).

For the first test, the target named is T1, 5-lipoxygenase (Bos taurus, UniProt F1MQ78).
T1 construct: The source for 5-lipoxygenase were bovine granulocytes; endogenous in cells; host or cells: granulocytes isolated from EDTA-anticoagulated bovine blood
T1 sequence (F1MQ78 1-674): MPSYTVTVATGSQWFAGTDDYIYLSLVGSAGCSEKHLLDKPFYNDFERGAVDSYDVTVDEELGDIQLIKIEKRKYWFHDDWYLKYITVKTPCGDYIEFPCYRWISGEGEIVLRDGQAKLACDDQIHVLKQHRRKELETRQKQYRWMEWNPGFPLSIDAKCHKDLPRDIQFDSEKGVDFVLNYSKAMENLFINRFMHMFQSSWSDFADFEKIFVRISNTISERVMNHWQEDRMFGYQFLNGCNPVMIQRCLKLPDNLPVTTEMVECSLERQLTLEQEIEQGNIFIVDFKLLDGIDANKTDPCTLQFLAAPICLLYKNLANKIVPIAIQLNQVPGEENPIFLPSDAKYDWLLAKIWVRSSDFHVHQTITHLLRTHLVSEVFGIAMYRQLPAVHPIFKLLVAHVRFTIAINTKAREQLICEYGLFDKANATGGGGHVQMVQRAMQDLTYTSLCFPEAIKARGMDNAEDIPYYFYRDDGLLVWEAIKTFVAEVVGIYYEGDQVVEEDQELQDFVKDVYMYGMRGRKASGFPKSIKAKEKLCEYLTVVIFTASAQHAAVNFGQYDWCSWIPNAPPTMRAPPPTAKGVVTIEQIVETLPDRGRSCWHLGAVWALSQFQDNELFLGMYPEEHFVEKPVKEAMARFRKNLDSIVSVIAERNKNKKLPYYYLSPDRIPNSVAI
Description: inhibition of 5-lipoxygenase (LTB4 formed by calcium-ionophore stimulated bovine granulocytes). The format is cell-based. The conditions noted are these: Table 1. On the procedure:
The effectiveness of the compounds of the invention can be determined by means of the inhibition of 5-lipoxygenase or of cyclo-oxygenase. The research was carried out as follows: The source for 5-lipoxygenase were bovine granulocytes which can form leucotrienes just as human granulocytes do. By stimulation with calcium-ionophore (see BIOCHEM. BIOPHYS. ACTA 1984, 795, pp 499-503), mainly LTC4 (leucotriene C4) and LTB4 (leucotriene B4) are formed from endogenous arachidonic acid. The isolation of the granulocytes and the implementation of the enzyme reaction are conventional (see BIOCHEM. BIOPHYS. ACTA 1984, 795 pp 499-503). The blood protected against clotting by EDTA first is centrifuged for that purposed and the thrombotic excess is removed. Following lysis of the erythrocytes with water the lymphocytes and monocytes are separated from the granulocytes by means of a Ficoll gradient. The granulocytes are set to a specific cell number. The enzyme reaction is then begun in the presence or absence of the test substances following the addition of Ca^2+ with calcium ionophore. The synthesis of the leucotrienes is stopped after 5 minutes by adding a mixture of methanol and acetonitrile containing PGB2 as the internal standard and NDGA as the anti-oxidant. Next the samples are diluted in water and processed in the manner described in J. CHROMATOGR. […], 378, pp 208-214. LTB4 is measured at the absorption maximum at 270 nm. The arachidonic acid metabolites are observed present in this research in approximately quantitative manner. Tables 1 and 2 list the test results for the compounds of the invention, The test substances were at concentrations of 10 μM.
On to `O=C(O)CCc1c(-c2cccc(Cl)c2)c(-c2ccccc2)c2n1CCC2`, for which the inhibition – broadly, how much of the control response was suppressed – at 10 µM worked out at 89%.

For the compound `O=C(O)CCc1c(-c2ccc(Cl)cc2)c(-c2ccccc2)c2n1CCC2`, the inhibition at 10 µM was found to be 98%. Turning to `COc1ccc(-c2c(-c3ccccc3)c3n(c2CCC(=O)O)CCC3)cc1`, the inhibition at 10 µM was found to be 91%. On to `O=C(O)CCc1c(-c2ccc(Oc3ccccc3)cc2)c(-c2ccccc2)c2n1CCC2`, for which the inhibition at 10 µM was determined as 98%. On the same count and under the same terms, for `CC1(C)Cc2c(CCC(=O)O)c(-c3ccccc3)c(-c3ccccc3)n2C1` [(CH2)2 CO2 H, Phenyl, Phenyl, CH3, CH3] the value was 93%; for `O=C(O)CCCCc1c(-c2ccccc2)c(-c2ccccc2)n2c1CCC2` [(CH2)4 CO2 H, Phenyl, Phenyl, H, H], 86%. On to `CC1(C)Cc2c(CCCCCC(=O)O)c(-c3ccccc3)c(-c3ccccc3)n2C1` [(CH2)5 CO2 H, Phenyl, Phenyl, CH3, CH3], for which the inhibition at 10 µM stood at 96%. Still for that read-out and setting: for `O=C(O)CCCCCc1c(-c2ccccc2)c(-c2ccccc2)n2c1CCC2` [(CH2)5 CO2 H, Phenyl, Phenyl, H, H] the value was 86%; for `CC1(C)Cc2c(C=CC(=O)O)c(-c3ccccc3)c(-c3ccccc3)n2C1` [CHCHCO2 H, Phenyl, Phenyl, CH3, CH3], 91%. On to `O=C(O)CCCCc1c(-c2ccccc2)c2n(c1-c1ccccc1)CCC2` [Phenyl, (CH2)4 CO2 H, Phenyl, H, H], for which the inhibition at 10 µM is 82%. Regarding `O=C(O)CCCCCc1c(-c2ccccc2)c2n(c1-c1ccccc1)CCC2` [Phenyl, (CH2)5 CO2 H, Phenyl, H, H], the inhibition at 10 µM is 80%. Still for that read-out and setting: for `CCCCCCc1c(-c2ccccc2)c2n(c1C=CC(=O)O)CCC2` [Phenyl, C6 H13, CHCHCO2 H, H, H, 3-(6-(n-HEXYL)-7-PHENYL-2,3-DIHYDRO-1h-PYRROLIZINE-5-YL)-ACRYLIC ACID] the value was 82%; for `CC1(C)Cc2c(-c3ccccc3)c(-c3ccccc3)c(CCC(=O)O)n2C1` [Phenyl, Phenyl, (CH2)2 CO2 H, CH3, CH3], 91%. As for `CC1(C)Cc2c(-c3ccccc3)c(-c3ccccc3)c(CC(=O)O)n2C1` [Phenyl, Phenyl, CH2 CO2 H, CH3, CH3, (2,2-dimethyl-6,7-diphenyl-2,3-dihydro-1H-pyrrolizine-5-yl)-acetic acid], the inhibition at 10 µM was determined as 94%. Still for that read-out and setting: for `O=C(O)/C=C/c1c(-c2ccccc2)c(-c2ccccc2)c2n1CCC2` [Phenyl, Phenyl, CHCHCO2 H, H, H] the value was 80%.

For the compound `Cc1ccc(-c2c(-c3ccccc3)c3n(c2CCC(=O)O)CCC3)cc1` [Phenyl, p-Tolyl, (CH2)2 CO2 H, H, H], the inhibition at 10 µM turned out to be 92%. Regarding `O=C(O)CCc1c(-c2cccc3ccccc23)c(-c2ccccc2)c2n1CCC2` [Phenyl, α-naphthyl, (CH2)2 CO2 H, H, H], the inhibition at 10 µM was found to be 94%.

The same test, now with this note: Table 2.
Regarding `Cc1c(-c2ccccc2)c(-c2ccccc2)c(CCC(=O)O)n1CC(C)(C)C`, the inhibition at 10 µM amounted to 97%. Same read-out and setting: for `CCCCn1c(C)c(-c2ccccc2)c(-c2ccccc2)c1CCC(=O)O` the value was 94%. Still for that read-out and setting: for `CCCCCn1c(C)c(-c2ccccc2)c(-c2ccccc2)c1CCC(=O)O` the value was 99%; for `CCCCCCn1c(C)c(-c2ccccc2)c(-c2ccccc2)c1CCC(=O)O`, 99%.

The target of a further test is T2, cyclo-oxygenase (Bos taurus, UniProt O62664).
T2 construct: formed by bovine thrombocytes following addition of calcium ionophore; endogenous in cells; host or cells: thrombocytes isolated from the supernatant of centrifuged bovine blood
T2 sequence (O62664 25-600): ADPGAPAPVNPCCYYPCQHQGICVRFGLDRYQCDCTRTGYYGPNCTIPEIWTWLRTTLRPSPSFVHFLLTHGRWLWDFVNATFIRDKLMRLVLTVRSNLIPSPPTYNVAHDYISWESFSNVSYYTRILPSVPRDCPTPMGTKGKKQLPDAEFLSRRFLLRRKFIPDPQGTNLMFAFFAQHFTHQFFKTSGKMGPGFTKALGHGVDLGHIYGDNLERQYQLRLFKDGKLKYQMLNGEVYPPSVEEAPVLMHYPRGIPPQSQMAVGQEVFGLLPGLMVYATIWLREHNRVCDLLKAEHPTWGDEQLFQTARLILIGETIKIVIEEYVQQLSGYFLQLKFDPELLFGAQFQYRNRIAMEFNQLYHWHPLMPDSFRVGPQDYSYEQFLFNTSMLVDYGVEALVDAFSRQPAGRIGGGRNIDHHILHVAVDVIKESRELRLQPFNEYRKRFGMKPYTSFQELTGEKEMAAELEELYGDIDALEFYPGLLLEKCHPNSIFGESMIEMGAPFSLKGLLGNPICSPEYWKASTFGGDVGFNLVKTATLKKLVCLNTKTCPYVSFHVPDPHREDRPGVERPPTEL
Description: inhibition of cyclo-oxygenase (12-HHT or prostaglandin E2 formed by calcium-ionophore stimulated bovine thrombocytes). The format is cell-based. The conditions noted are these: Table 1, read-out: INHIBITION % Cyclooxygenase. On the procedure: The effectiveness of the compounds of the invention can be determined by means of the inhibition of 5-lipoxygenase or of cyclo-oxygenase. The research was carried out as follows:
In this test the 12-HHT amount of 12-hydroxyheptadecatriene acid or prostaglandin E2 amount formed by bovine thrombocytes following addition of calcium ionophore is determined by uv detection following HPLC separation. Following centrifuging of the bovine blood, the thrombocytes are isolated from the surnatant. The enzyme reaction and the isolation of the formed metabolites take place as when determining the 5-lipoxygenase inhibition, however the incubation time was one minute. The detection of 12 HHT following HPLC separation takes place at 232 nm.
Tables 1 and 2 list the test results for the compounds of the invention, The test substances were at concentrations of 10 μM.
Take `O=C(O)CCc1c(-c2ccc(Oc3ccccc3)cc2)c(-c2ccccc2)c2n1CCC2`: the inhibition at 10 µM came to 70%.

`CC1(C)Cc2c(-c3ccccc3)c(-c3ccccc3)c(CCC(=O)O)n2C1` [Phenyl, Phenyl, (CH2)2 CO2 H, CH3, CH3]: the inhibition at 10 µM was 97%.

In the case of `CC1(C)Cc2c(-c3ccccc3)c(-c3ccccc3)c(CC(=O)O)n2C1` [Phenyl, Phenyl, CH2 CO2 H, CH3, CH3, (2,2-dimethyl-6,7-diphenyl-2,3-dihydro-1H-pyrrolizine-5-yl)-acetic acid], the inhibition at 10 µM is 99%. In the case of `O=C(O)Cc1c(-c2ccccc2)c(-c2ccccc2)c2n1CCC2` [Phenyl, Phenyl, CH2 CO2 H, H, H], the inhibition at 10 µM worked out at 91%.

The next test has as its target T1, 5-lipoxygenase. Briefly: inhibition of 5-lipoxygenase (LTB4 formed by calcium-ionophore stimulated bovine granulocytes). The format is cell-based. The conditions noted are these: Table 1, 3,3 μM.
Consider `CC1(C)Cc2c(-c3ccccc3)c(-c3ccc(Oc4ccccc4)cc3)c(CCC(=O)O)n2C1` [3-(2,2-dimethyl-6-(4-phenoxyphenyl)-7-phenyl-2,3-dihydro-1H-pyrrolizine-5-yl) propionic acid], for which the inhibition at 3 µM stood at 98%.
